In patent publication US10463710B2, “Short synthetic peptide for the treatment and/or prophylaxis of autoimmune and inflammatory disorders” (MacKay Memorial Hospital, priority 2015, dated 2019):

System: IMQ-induced psoriasis-like skin inflammation
Experiment: Mouse model of IMQ-induced psoriasis-like skin inflammation
Format: in vivo, BALB/c mice
Procedure: All experimental procedures were approved by the Mackay Memorial Hospital Animal Care and Uses Committee and conducted according to national animal welfare regulations. Psoriasis-like skin inflammation was created by treating mouse skin with Imiquimod (IMQ) in accordance with the procedures described by van der Fits et al (J Immunol. (2009), 182, 5836-5845). Accordingly, each BALB/c mice (8 weeks old) received a daily topical dose of 62.5 mg of commercially available IMQ cream (5%) on the shaved back and the right ear for 6 consecutive days; whereas the control mice (normal group) were treated with a control cream. For treatment, 7-mer analogue was mixed with IMQ cream to a concentration 100 μM.
Keratinocyte proliferation was determined by 5-bromo-2′-deoxyuridine (BrdU) incorporation. BrdU (Sigma-Aldrich) was reconstituted in DMSO as a stock solution of 80 mM. 10 μl of BrdU mixed with 90 μl of PBS was intraperitoneally injected into each mouse for 24 hr prior to euthanasia. Back skin was fixed overnight in 4% paraformaldehyde and embedded in paraffin for immunohistochemistry.
In this example, the efficacy of the present synthetic peptides of Example 1 on IMQ-induced psoriasis-like skin inflammation was investigated. To this purpose, animals (8-week-old mice) were given a daily topical dose of IMQ cream on the shaved back for six consecutive days, so as to induce psoriasis-like skin inflammation and desquamation (FIG. 1; left panel).
Psoriasis is a disease resulted from abnormal keratinocyte proliferation, thus the effects of the present synthetic peptides on the proliferation of keratinocytes were also monitored in accordance with procedures described in the section of “Materials and Methods”. Results are illustrated in FIG. 2.

CC(=O)N[C@@H](CC(=O)O)C(=O)N[C@@H](CC(C)C)C(=O)N[C@@H](Cc1ccc(O)cc1)C(=O)N[C@@H](CCCNC(=N)N)C(=O)N[C@H](C(=O)N[C@@H](CCCNC(=N)N)C(=O)N[C@@H](CO)C(N)=O)C(C)C [7-mer, NH2-Asp-Leu-Tyr-Arg-Val-Arg-Ser-COOH]
number of BrdU-positive keratinocytes (7-mer topically or via intraperitoneal injection, FIG. 2): significantly reduced
level of skin inflammation and desquamation (topical cream containing IMQ and 7-mer peptide 100 μM, six consecutive days, FIG. 1): reduced significantly
